In patent US20210379010A1, “COMPOSITIONS COMPRISING CANNABINOIDS FOR USE IN THE TREATMENT OF BIOFILM AND CONDITIONS ASSOCIATED WITH MICROBIAL, FUNGAL, BACTERIAL INFECTIONS” (Yissum Research Development Company of The Hebrew …, priority 2018, published 2021):
In brackets after ≈: the same amount, converted by molar mass. Several values for one entry are separate records, joined by “and”; a condition that tells them apart may be missing. Equal entries are not always repeated.

Experiments:
[1] = tested on: S.aureus MRSA 43300; assay: Growth of MRSA 43300, cannabinoid alone and combined with antibiotic (MIC/FIC/FICI); assay type: cell-based; conditions: MRSA 43300 growth; for MIC AEA: AEA alone; for MIC ARAS: ARAS alone
[2] = tested on: P. aeruginosa biofilm; assay: CLSM of treated P. aeruginosa biofilm
[3] = tested on: S.aureus MRSA 33592; assay: Growth of MRSA 33592, cannabinoid alone and combined with antibiotic (MIC/FIC/FICI); assay type: cell-based; conditions: MRSA 33592 growth; for MIC AEA: AEA alone, in µg/mL; for MIC ARAS: ARAS alone
[4] = tested on: MRSA strain 43300; assay: Colony spreading on soft agar, MRSA 43300
Procedure: (§1) The swimming assay was performed on soft agar plates. 0.2% agar medium was prepared and autoclaved. The bacteria were exposed to the tested agents. 3 μl of overnight bacterial culture (O.D 595˜0.5) was inoculated at the centre of the agar plate. […] The plates were then incubated for 15 h.

[5] = tested on: S.aureus MRSA 43300 biofilm; assay: Biofilm formation of MRSA 43300, cannabinoid alone and combined with antibiotic (MBIC/FBIC/FBICI); assay type: cell-based; conditions: for MBIC AEA: AEA alone; for MBIC ARAS: ARAS alone
[6] = tested on: S. mutans biofilm; assay: S. mutans biofilm formation inhibition; assay type: cell-based
[7] = tested on: S. aureus MRSA 24433; assay: Growth of MRSA 24433, cannabinoid alone and combined with antibiotic (MIC/FIC/FICI); assay type: cell-based; conditions: MRSA 24433 growth; for MIC AEA: AEA alone; for FIC AEA: MIC of AEA in combination with methicillin
[8] = tested on: C. albicans biofilm; assay: MTT assay of C. albicans biofilm; assay type: cell-based
Procedure: To investigate the effect of the agents on preformed biofilms, biofilms were allowed to mature in for 24 h at 37° C. in a 6-well plate. The biofilms were washed twice with PBS. The active agents were then applied. The plates were further incubated for 24 h at 37° C. The amounts of biofilms, were determined quantitatively using a standard MTT reduction assay as described previously. Briefly, biofilms were overlaid with […] of 3-(4,5-dimethyl-2-thiazolyl)-2,5-diphenyl-2H-tetrazolium bromide (MTT) and incubated for 2 h at 37° C. Under these conditions, the lightly yellowish MTT was reduced to a blue tetrazolium salt accumulated within the metabolic active biofilms. The stain was then dissolved in DMSO and the absorbance value was measured at 570 nm. The accumulation of tetrazolium salt by the reduction of MTT is proportional to the number of viable cells growing in biofilm. Prior to dissolving in DMSO, biofilms were photographed and visualized. Assay was performed in triplicate.

[9] = tested on: S.aureus MRSA 33592 biofilm; assay: Biofilm formation of MRSA 33592, cannabinoid alone and combined with antibiotic (MBIC/FBIC/FBICI); assay type: cell-based; conditions: for MBIC AEA: AEA alone; for MBIC ARAS: ARAS alone
[10] = tested on: MRSA strain 33592; assay: Colony spreading on soft agar, MRSA 33592
Procedure: as §1

[11] = tested on: MRSA strain CI; assay: Colony spreading on soft agar, MRSA CI
Procedure: as §1

[12] = tested on: S. aureus MRSA 24433 biofilm; assay: Biofilm formation of MRSA 24433, cannabinoid alone and combined with antibiotic (MBIC/FBIC/FBICI); assay type: cell-based; conditions: for MBIC AEA: AEA alone; for FBIC AEA: MBIC of AEA in combination with methicillin
[13] = tested on: S. mutans biofilm; assay: CLSM live/dead staining of S. mutans biofilm
Procedure: The bacterial viability and vitality of was analyzed by CLSM (Olympus Fluoview 300, Olympus, Japan) with a UPLSA 10×/0.4 lenses. The biofilm samples were grown overnight on 96 well. The biofilm was washed carefully using 200 μl PBS solution after overnight incubation, and then stained with 50 μl of LIVE/DEAD BacLight fluorescent dye (Invitrogen Life Technologies, Carlsbad, Calif., USA) (1:100) for 20 min in the dark, at room temperature. This staining allowed to distinguish the live organisms from the dead ones. […] The biofilm thickness was examined by generating the optical sections that were acquired at spacing steps of 10 μm Image J program (The National Institute of Health) was used for fluorescence analysis which calculates the fluorescence intensity per area for each color separately.

[14] = tested on: V. harveyi quorum sensing; assay: Quorum sensing assay, relative bioluminescence of V. harveyi mutant strains; assay type: cell-based; conditions: sub-MIC concentrations, dose response up to 100 μg/ml
Text: FIG. 6 Relative Bioluminescence Unit (LUM/(O.D(595 nm))) (RLU) of different mutant strains of bacteria V. harveyi when exposed to different sub-MIC concentrations of AEA.

[15] = tested on: C. albicans; assay: C. albicans growth (MIC); assay type: cell-based; conditions: Candida albicans; single C. albicans growth; highest tested dose 64 μg/ml; read-out: MIC, fungal growth
[16] = tested on: fluconazole resistant C. albicans strain DSY735 biofilm; conditions: Table 2
[17] = tested on: fluconazole resistant C. albicans strains; assay type: cell-based; conditions: each agent alone or in combination; data not shown
[18] = tested on: C. albicans biofilm; assay: C. albicans biofilm formation inhibition; assay type: cell-based; conditions: single C. albicans biofilm formation
[19] = tested on: fluconazole resistant C. albicans strain DSY551 biofilm; conditions: Table 2
[20] = tested on: mixed S. mutans-C. albicans; assay: Growth of C. albicans-S. mutans co-culture; assay type: cell-based; conditions: mixed S. mutans-C. albicans growth
[21] = tested on: mixed C. albicans-S. mutans biofilm; assay: Co-species C. albicans-S. mutans biofilm formation inhibition; assay type: cell-based
[22] = tested on: S. mutans; assay: S. mutans growth (MIC); assay type: cell-based; conditions: Streptococcus mutans; single S. mutans growth; read-out: MIC
[23] = MBIC of ARAS in combination with fluconazole

Compound: CCCCC/C=C\C/C=C\C/C=C\C/C=C\CCCC(=O)NCCO [AEA, arachidonoyl ethanolamide]
- MIC AEA ([1]; Table 6C): > 256 µg/mL
- MIC AEA ([1]; Table 8B): > 256 µg/mL
- FIC AEA ([1]; MIC of AEA in combination with ampicillin, Table 8B): 16
- FIC AEA ([1]; MIC of AEA in combination with methicillin, Table 6C): 16
- layers/depth of P. aeruginosa biofilm [2]: reduced layers/depth of biofilm
- P. aeruginosa biofilm density ([2]; compared with PEA): more significant reduction in biofilm density
- MIC AEA ([3]; Table 6A): >256
- MIC AEA ([3]; Table 7): >256
- MIC AEA ([3]; Table 8A): >256
- decrease of MIC in combination ([3]; AEA with gentamicin vs agent alone): more than 32 fold
- FIC AEA ([3]; MIC of AEA in combination with ampicillin, Table 8A): 8
- FIC AEA ([3]; MIC of AEA in combination with gentamicin, Table 7): 8
- FIC AEA ([3]; MIC of AEA in combination with methicillin, Table 6A): 16
- reduction of colony diameter (spreading) vs untreated control ([4]; AEA 64 μg/ml): 73% and 73 ± 2.6%
- MBIC AEA ([5]; Table 6C): >256
- MBIC AEA ([5]; Table 8B): >256
- FBIC AEA ([5]; MBIC of AEA in combination with ampicillin, Table 8B): 16
- FBIC AEA ([5]; MBIC of AEA in combination with methicillin, Table 6C): 32
- inhibition of S. mutans biofilm formation ([6]; highest tested dose of 64 μg/ml): 45%
- MIC AEA ([7]; Table 1): >64 µg/mL
- MIC AEA ([7]; Table 6B): > 256 µg/mL
- FIC AEA ([7]; Table 1): 16 µg/mL
- FIC AEA ([7]; Table 6B): 16
- C. albicans biofilm formation (MTT assay) [8]: dose-dependent inhibition
- MBIC AEA ([9]; Table 6A): 64
- MBIC AEA ([9]; Table 7): 64
- MBIC AEA ([9]; Table 8A): 64
- FBIC AEA ([9]; MBIC of AEA in combination with ampicillin, Table 8A): 8
- FBIC AEA ([9]; MBIC of AEA in combination with gentamicin, Table 7): 8
- FBIC AEA ([9]; MBIC of AEA in combination with methicillin, Table 6A): 8
- reduction of colony diameter (spreading) vs untreated control ([10]; AEA 64 μg/ml): 84% and 84 ± 1.8%
- reduction of colony diameter (spreading) vs untreated control ([11]; AEA 64 μg/ml): 88% and 88 ± 1.9%
- MBIC AEA ([12]; Table 1): 32 µg/mL
- MBIC AEA ([12]; Table 6B): 32
- FBIC AEA ([12]; Table 1): 8 µg/mL
- FBIC AEA ([12]; Table 6B): 8
- S. mutans biofilm formation (CLSM) [13]: dose-dependent inhibition
- quorum sensing (relative bioluminescence, AUC vs control) [14]: inhibition

Compound: CCCCC/C=C\C/C=C\C/C=C\C/C=C\CCCC(=O)N[C@@H](CO)C(=O)O [ARAS, arachidonoyl serine]
- MIC ARAS ([1]; Table 3C): 64 µg/mL
- MIC ARAS ([1]; Table 5B): 64 µg/mL
- FIC ARAS ([1]; MIC of ARAS in combination with ampicillin, Table 5B): 16
- FIC ARAS ([1]; MIC of ARAS in combination with methicillin, Table 3C): 16
- MIC [15]: > 64 µg/mL
- MBIC ARAS ([16]; ARAS alone): 64 µg/mL
- FBIC ARAS [16, 23]: 32 µg/mL
- MIC ARAS ([3]; Table 3A): 64 µg/mL
- MIC ARAS ([3]; Table 4): 32 µg/mL
- MIC ARAS ([3]; Table 5A): 32 µg/mL
- FIC ARAS ([3]; MIC of ARAS in combination with ampicillin, Table 5A): 8
- FIC ARAS ([3]; MIC of ARAS in combination with gentamycin, Table 4): 4
- FIC ARAS ([3]; MIC of ARAS in combination with methicillin, Table 3A): 16
- inhibition of colony spreading vs untreated control ([4]; ARAS 32 μg/ml (sub-MIC)): 46% and 46 ± 2.8%
- MBIC ARAS ([5]; Table 3C): 32
- MBIC ARAS ([5]; Table 5B): 32
- FBIC ARAS ([5]; MBIC of ARAS in combination with ampicillin, Table 5B): 8
- FBIC ARAS ([5]; MBIC of ARAS in combination with methicillin, Table 3C): 8
- growth of fluconazole resistant fungal strains [17]: not affected
- inhibition at 8 µg/mL ([6]; Streptococcus mutans, 8 μg/ml, read-out: inhibition of single S. mutans biofilm formation): > 50%
- MBIC50 (minimal biofilm inhibitory concentration 50, 50% of biofilm inhibition) [18]: 16 µg/mL
- MIC ARAS ([7]; ARAS alone, Table 3B): > 256 µg/mL
- FIC ARAS ([7]; MIC of ARAS in combination with methicillin, Table 3B): >64
- MBIC ARAS ([19]; ARAS alone): 64 µg/mL
- FBIC ARAS [19, 23]: 32 µg/mL
- MIC [20]: > 64 µg/mL
- MBIC50 [21]: 32 µg/mL
- MBIC ARAS ([9]; Table 3A): 32
- MBIC ARAS ([9]; Table 4): 32
- MBIC ARAS ([9]; Table 5A): 32
- FBIC ARAS ([9]; MBIC of ARAS in combination with ampicillin, Table 5A): 16
- FBIC ARAS ([9]; MBIC of ARAS in combination with gentamycin, Table 4): 4
- FBIC ARAS ([9]; MBIC of ARAS in combination with methicillin, Table 3A): 16
- inhibition of colony spreading vs untreated control ([10]; ARAS 16 μg/ml (sub-MIC)): 65% and 65 ± 3.4%
- inhibition of colony spreading vs untreated control ([11]; ARAS 64 μg/ml (sub-MIC)): 64% and 64 ± 2.5%
- MIC [22]: 64 µg/mL (≈ 163 µM)
- MBIC ARAS ([12]; ARAS alone, Table 3B): 32
- FBIC ARAS ([12]; MBIC of ARAS in combination with methicillin, Table 3B): 16
